Data on two molecules can be found in patent publication US7928060B2, “Amylin family polypeptide-6 (AFP-6) analogs and methods of making and using them” (Amylin Pharmaceuticals, Inc., priority 2004, dated 2011).

A word on the pEC50: it is the EC50 on a negative log10 scale, so that one unit is a factor of ten.

One assay deals with rats. Nature of the assay: telemetry of cardiovascular parameters in conscious rats. Format: in vivo, rat. The note with it: 10 nmol/kg intravenous, 1 hour. The text has this: Telemetry allows for real-time hemodynamic readings including arterial pressure, heart rate, arterial dP/dt, ECG (with waveform intervals) and core temperature via an implanted radio transmitter in conscious, non-anesthetized, unrestrained rats. […] Remote intravenous dosing is achieved through in-dwelling vascular access ports.

The test system of assay [1] is adrenomedullin receptor. The note with it: cited from earlier work.
Assay [2] deals with calcitonin receptor. Put plainly: cAMP production in CHO cells (AlphaScreen). Format: cell-based. Particulars: for rank order of potency, CHO cell experiments: panel of related peptides; for pEC50: CHO, 30,000 cells/well. For orientation: Cyclic AMP is a second messenger, typically raised through Gs and lowered through Gi signalling.
The target in assay [3] is adrenomedullin receptor (Homo sapiens, UniProt O60895+Q16602). Put plainly: cAMP production in HUVECs (AlphaScreen). Set-up: tested for bioactivity in HUVECs that contain the adrenomedullin receptor; endogenous in cells; host or cells: HUVEC. The note with it: cAMP, FIG. 9. Format: cell-based.
In assay [4] the target is T1, calcitonin receptor (Homo sapiens, UniProt P30988).
T1 sequence (P30988 25-474): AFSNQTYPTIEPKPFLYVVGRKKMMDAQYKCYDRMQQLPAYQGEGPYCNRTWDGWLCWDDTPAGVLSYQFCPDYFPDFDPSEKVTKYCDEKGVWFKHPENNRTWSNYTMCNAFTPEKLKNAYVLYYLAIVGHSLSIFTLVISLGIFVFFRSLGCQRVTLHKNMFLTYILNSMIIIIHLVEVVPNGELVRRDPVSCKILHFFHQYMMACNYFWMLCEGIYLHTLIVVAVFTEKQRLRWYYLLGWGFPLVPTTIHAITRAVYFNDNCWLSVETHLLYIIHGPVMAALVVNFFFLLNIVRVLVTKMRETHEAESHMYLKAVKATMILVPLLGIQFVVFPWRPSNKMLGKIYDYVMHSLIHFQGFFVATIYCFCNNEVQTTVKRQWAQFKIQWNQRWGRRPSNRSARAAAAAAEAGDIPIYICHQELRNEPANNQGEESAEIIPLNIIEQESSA
Nature of the assay: cAMP production in T47D cells (AlphaScreen).

pEC50: −log10 of the molar value. Like-named read-outs stand apart in the source and are kept apart here. Bridge positions count the residues as written; N and C are the ends. Peptide text beside a SMILES is read from it.

Chain of adrenomedullin receptor (Homo sapiens, UniProt O60895+Q16602) (Q16602 23-461): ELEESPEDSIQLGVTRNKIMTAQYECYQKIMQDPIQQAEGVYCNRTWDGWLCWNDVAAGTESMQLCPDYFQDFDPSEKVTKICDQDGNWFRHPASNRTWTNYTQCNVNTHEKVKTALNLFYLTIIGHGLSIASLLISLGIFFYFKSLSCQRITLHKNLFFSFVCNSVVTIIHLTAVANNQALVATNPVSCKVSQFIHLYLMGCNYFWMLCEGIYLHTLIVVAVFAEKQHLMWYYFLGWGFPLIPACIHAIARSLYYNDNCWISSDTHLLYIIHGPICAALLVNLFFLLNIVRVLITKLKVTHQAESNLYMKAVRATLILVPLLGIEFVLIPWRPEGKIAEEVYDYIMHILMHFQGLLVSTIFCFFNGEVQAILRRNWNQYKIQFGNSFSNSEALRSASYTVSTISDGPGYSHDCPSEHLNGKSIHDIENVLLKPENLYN
Chain of adrenomedullin receptor (Homo sapiens, UniProt O60895+Q16602) (O60895 43-175): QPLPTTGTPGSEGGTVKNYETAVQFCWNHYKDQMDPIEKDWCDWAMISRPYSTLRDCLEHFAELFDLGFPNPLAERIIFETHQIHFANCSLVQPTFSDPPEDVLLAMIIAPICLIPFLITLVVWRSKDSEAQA

For the molecule “Amylin: amylin as reviewed in Wimalawansa (1997), species not stated”, in the assay on rats, the dp/dt entry is reported as “acutely increases the dp/dt, but the effect tapers off over time”; the “mean arterial pressure (MAP)” value is “increases mean arterial pressure (MAP) acutely and then may lower MAP in the first 30 minutes”. Also, the “binding affinity at the adrenomedullin receptor” value in the assay with adrenomedullin receptor [1] is on record as “several hundred”. Moreover, in the assay with calcitonin receptor [2] (cAMP), the “rank order of potency, CHO cell experiments” value is given as “calcitonin >AFP-6>amylin >hCGRP alpha>adrenomedullin”.

For `CC(C)C[C@H](NC(=O)CNC(=O)[C@H](C)NC(=O)[C@H](CC(C)C)NC(=O)[C@H](CCCNC(=N)N)NC(=O)[C@H](Cc1c[nH]cn1)NC(=O)[C@@H](NC(=O)[C@@H](NC(=O)[C@@H]1CSSC[C@H](NC(=O)[C@H](C)N)C(=O)N[C@@H](CC(=O)O)C(=O)N[C@@H]([C@@H](C)O)C(=O)N[C@@H](C)C(=O)N[C@@H]([C@@H](C)O)C(=O)N1)C(C)C)[C@@H](C)O)C(=O)N[C@@H](CC(C)C)C(=O)N[C@@H](CO)C(=O)N[C@@H](CCCNC(=N)N)C(=O)N[C@@H](CO)C(=O)NCC(=O)NCC(=O)N[C@@H](Cc1c[nH]c2ccccc12)C(=O)N[C@@H](CCCCN)C(=O)N[C@@H](CC(N)=O)C(=O)N[C@@H](CC(N)=O)C(=O)N[C@@H](Cc1ccccc1)C(=O)N[C@H](C(=O)N1CCC[C@H]1C(=O)N[C@H](C(=O)N[C@@H](CC(N)=O)C(=O)N[C@H](C(=O)NCC(=O)N[C@@H](CO)C(=O)N[C@@H](CCCCN)C(=O)N[C@@H](C)C(=O)N[C@@H](Cc1ccccc1)C(N)=O)C(C)C)[C@@H](C)O)C(C)C` [SEQ ID NO: 7] (H-ACDTATCVTHRLAGLLSRSGGWKNNFVPTNVGSKAF-NH2; disulfide 2-7 (inferred); N-terminus assumed), the negative-log EC50 (pEC50) with calcitonin receptor [2] (average of three experiments, read-out: Average EC50) was 7.09; in the assay on calcitonin receptor [2] (read-out: Experiment 1 EC50), 7.15; with calcitonin receptor [2] (read-out: Experiment 2 EC50), 7.09; in the assay with calcitonin receptor [2] (read-out: Experiment 3 EC50), 7.05. In addition, the “rank order of potency in CHO cells” value with calcitonin receptor [2] (cAMP, FIG. 9) is on record as “AFP-6>adrenomedullin=CGRP alpha”. In the assay on calcitonin receptor [2] (cAMP), the “rank order of potency, CHO cell experiments” value is “calcitonin >AFP-6>amylin >hCGRP alpha>adrenomedullin”. The “rank order of potency in HUVECs” value on adrenomedullin receptor [3] was “adrenomedullin >AFP-6>>CGRP alpha”. For the same molecule, the “rank order of potency, T47D cells” value at calcitonin receptor [4] is recorded as “calcitonin>amylin >AFP-6=hCGRP alpha>adrenomedullin”.
